The values that follow come from patent US10968231B2, “Substituted cyclyl-acetic acid derivatives for the treatment of metabolic disorders” (TAKEDA PHARMACEUTICAL COMPANY LIMITED, priority 2017, dated 2021).

This assay addresses T1, human GPR40 (Homo sapiens, UniProt O14842).
T1 construct: expressed in transfected cells
Description: Evaluation of human GPR40 agonist activity with increase in intracellular Ca2+ concentration as an index (FLIPR). The conditions noted are these: test compound at final concentration of 1 μM; CHO(dhfr−) cells stably expressing human GPR40; 100% = activity of 10 μM of compound of WO 2015/020184 Example 153, 0% = DMSO. Format: cell-based. The procedure: Evaluation of Human GPR40 Agonist Activity with Increase in Intracellular Ca^2+ Concentration as an Index
CHO(dhfr−) cells that stably expressed human GPR40 were suspended in MEMα (Wako Pure Chemical Industries, Ltd.) containing 10% dialyzed serum (Thermo Fisher Scientific), 10 mM HEPES (Thermo Fisher Scientific), 100 U/mL penicillin, 100 μg/mL streptomycin (Wako Pure Chemical Industries, Ltd.), and plated on a 384 well black/clear cell culture plate at 10,000 cells/well. After culture overnight in a CO2 incubator at 37° C., the culture supernatant was removed, and loading buffer [Ca^2+ probe attached to Calcium Kit II-iCellux (DOJINDO) was dissolved in assay buffer (20 mM HEPES, 0.1% fatty acid-free BSA (Wako Pure Chemical Industries, Ltd.), 2.5 mM probenecid (DOJINDO)-containing HBSS (Thermo Fisher Scientific))] was added at 30 μL/well. After leaving for 1 hr at room temperature under light shielding, assay buffer containing the test compound at a final concentration of 1 μM was added at 10 μL/well in fluorescence plate reader FLIPR Tetra (Molecular Devices), and the fluorescence amount was successively measured. Human GPR40 agonist activity was calculated using an increase in the intracellular Ca^2+ concentration as an index, wherein the activity of 10 μM of the compound of WO 2015/020184 (Example 153: 3-cyclopropyl-3-(2-((1-(2-((2-fluoro-2-methylpropyl)(4-methylpyridin-2-yl)carbamoyl)-5-methoxyphenyl)piperidin-4-yl)methoxy)pyridin-4-yl)propanoic acid) was 100%, and the activity when DMSO was added instead of the test compound was 0%.

T1 sequence (O14842 whole entry): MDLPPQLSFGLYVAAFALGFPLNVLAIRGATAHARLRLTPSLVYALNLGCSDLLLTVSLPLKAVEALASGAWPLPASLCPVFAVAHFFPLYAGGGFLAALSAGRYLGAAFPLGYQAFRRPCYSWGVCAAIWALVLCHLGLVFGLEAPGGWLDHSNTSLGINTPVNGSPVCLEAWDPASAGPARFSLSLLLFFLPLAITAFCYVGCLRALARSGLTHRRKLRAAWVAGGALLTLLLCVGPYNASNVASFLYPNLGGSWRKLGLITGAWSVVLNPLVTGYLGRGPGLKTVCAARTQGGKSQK

As for `COc1ccc(CCC(F)(F)F)c(N2CCC(COc3cc4c(cn3)OCCC4CC(=O)O)CC2)c1` (stereo not shown) [Example 8, (6-((1-(5-methoxy-2-(3,3,3-trifluoropropyl)phenyl)piperidin-4-yl)methoxy)-3,4-dihydro-2H-pyrano[2,3-c]pyridin-4-yl)acetic acid], the “activity (human GPR40 agonist activity)” value worked out at 103%. Consider `COc1cc(N2CCC(COc3cc4c(cn3)OCCC4CC(=O)O)CC2)c(OCC(F)(F)C(F)(F)F)cn1` (stereo not shown) [Example 2, (6-((1-(2-methoxy-5-(2,2,3,3,3-pentafluoropropoxy)pyridin-4-yl)piperidin-4-yl)methoxy)-3,4-dihydro-2H-pyrano[2,3-c]pyridin-4-yl)acetic acid], for which the “activity (human GPR40 agonist activity)” value was 108%. Regarding `COc1ccc(C2CCN(CC(F)(F)F)CC2)c(N2CCC(COc3cc4c(cn3)OCCC4CC(=O)O)CC2)c1` (stereo not shown) [Example 36, (6-((1-(5-methoxy-2-(1-(2,2,2-trifluoroethyl)piperidin-4-yl)phenyl)piperidin-4-yl)methoxy)-3,4-dihydro-2H-pyrano[2,3-c]pyridin-4-yl)acetic acid], the “activity (human GPR40 agonist activity)” value is given as 110%. As for `COc1ccc(C2CCN(CC(F)(F)F)CC2)c(N2CCC(COc3cc4c(cn3)OCCC4CC(=O)O)CC2)c1` (stereo not shown) [Example 9, (6-((1-(5-methoxy-2-(1-(2,2,2-trifluoroethyl)piperidin-4-yl)phenyl)piperidin-4-yl)methoxy)-3,4-dihydro-2H-pyrano[2,3-c]pyridin-4-yl)acetic acid], the “activity (human GPR40 agonist activity)” value stood at 104%. On to `COc1cc(N2CCC(COc3cc4c(cn3)OCCC4CC(=O)O)CC2)c(C2CCN(CC(F)(F)F)CC2)cn1` (single isomer, unassigned) [Example 6, (6-((1-(2-methoxy-5-(1-(2,2,2-trifluoroethyl)piperidin-4-yl)pyridin-4-yl)piperidin-4-yl)methoxy)-3,4-dihydro-2H-pyrano[2,3-c]pyridin-4-yl)acetic acid], for which the “activity (human GPR40 agonist activity)” value came to 59%. With `COc1ccc(C2CCN(CC(F)(F)F)CC2)c(N2CCC(COc3cc4c(cn3)CCC4CC(=O)O)CC2)c1` (stereo not shown) [Example 29, (3-((1-(5-methoxy-2-(1-(2,2,2-trifluoroethyl)piperidin-4-yl)phenyl)piperidin-4-yl)methoxy)-6,7-dihydro-5H-cyclopenta[c]pyridin-5-yl)acetic acid] the figure was 65%; with `COc1ccc(CCC(F)(F)F)c(N2CCC(COc3cc4c(cn3)OCCC4CC(=O)O)CC2)c1` (stereo not shown) [Example 18, (6-((1-(5-methoxy-2-(3,3,3-trifluoropropyl)phenyl)piperidin-4-yl)methoxy)-3,4-dihydro-2H-pyrano[2,3-c]pyridin-4-yl)acetic acid], 41%; with `COc1cc(N2CCC(COc3cc4c(cn3)OCCC4CC(=O)O)CC2)c(C2CCN(CC(F)(F)F)CC2)cn1` (single isomer, unassigned) [Example 5, (6-((1-(2-methoxy-5-(1-(2,2,2-trifluoroethyl)piperidin-4-yl)pyridin-4-yl)piperidin-4-yl)methoxy)-3,4-dihydro-2H-pyrano[2,3-c]pyridin-4-yl)acetic acid], 111%. As for `COc1cc(N2CCC(COc3cc4c(cn3)OCCC4CC(=O)O)CC2)c(OCC(F)(F)C(F)(F)F)cn1` (stereo not shown) [Example 11, (6-((1-(2-methoxy-5-(2,2,3,3,3-pentafluoropropoxy)pyridin-4-yl)piperidin-4-yl)methoxy)-3,4-dihydro-2H-pyrano[2,3-c]pyridin-4-yl)acetic acid], the “activity (human GPR40 agonist activity)” value turned out to be 107%.

As for `COc1ccc(C2CCN(CC(F)(F)F)CC2)c(N2CCC(COc3cc4c(cn3)CCC4CC(=O)O)CC2)c1` (stereo not shown) [Example 4, (3-((1-(5-methoxy-2-(1-(2,2,2-trifluoroethyl)piperidin-4-yl)phenyl)piperidin-4-yl)methoxy)-6,7-dihydro-5H-cyclopenta[c]pyridin-5-yl)acetic acid], the “activity (human GPR40 agonist activity)” value came out at 108%. As to `COc1cc(N2CCC(COc3cc4c(cn3)OCCC4CC(=O)O)CC2)c(OCC(F)(F)C(F)(F)F)cn1` (stereo not shown) [Example 17, (6-((1-(2-methoxy-5-(2,2,3,3,3-pentafluoropropoxy)pyridin-4-yl)piperidin-4-yl)methoxy)-3,4-dihydro-2H-pyrano[2,3-c]pyridin-4-yl)acetic acid], the “activity (human GPR40 agonist activity)” value is given as 58%.

For the molecule `COc1ccc(C2CCN(CC(F)(F)F)CC2)c(N2CCC(COc3cc4c(cn3)OCCC4CC(=O)O)CC2)c1` (stereo not shown) [Example 28, (6-((1-(5-methoxy-2-(1-(2,2,2-trifluoroethyl)piperidin-4-yl)phenyl)piperidin-4-yl)methoxy)-3,4-dihydro-2H-pyrano[2,3-c]pyridin-4-yl)acetic acid], the “activity (human GPR40 agonist activity)” value was determined as 54%. Consider `COc1ccc(CCC(F)(F)F)c(N2CCC(COc3cc4c(cn3)OCCC4CC(=O)O)CC2)c1` (stereo not shown) [Example 1, (6-((1-(5-methoxy-2-(3,3,3-trifluoropropyl)phenyl)piperidin-4-yl)methoxy)-3,4-dihydro-2H-pyrano[2,3-c]pyridin-4-yl)acetic acid], for which the “activity (human GPR40 agonist activity)” value was determined as 107%. The same measure for `COc1ccc(C2CCN(CC(F)(F)F)CC2)c(N2CCC(COc3cc4c(cn3)CCC4CC(=O)O)CC2)c1` (stereo not shown) [Example 10, (3-((1-(5-methoxy-2-(1-(2,2,2-trifluoroethyl)piperidin-4-yl)phenyl)piperidin-4-yl)methoxy)-6,7-dihydro-5H-cyclopenta[c]pyridin-5-yl)acetic acid]: 105%. With `COc1cc(N2CCC(COc3cc4c(cn3)OCCC4CC(=O)O)CC2)c(C2CCN(CC(F)(F)F)CC2)cn1` (single isomer, unassigned) [Example 7, (6-((1-(2-methoxy-5-(1-(2,2,2-trifluoroethyl)piperidin-4-yl)pyridin-4-yl)piperidin-4-yl)methoxy)-3,4-dihydro-2H-pyrano[2,3-c]pyridin-4-yl)acetic acid] the figure was 107%; with `COc1cc(N2CCC(COc3cc4c(cn3)CCC4CC(=O)O)CC2)c(OCC(F)(F)C(F)(F)F)cn1` (stereo not shown) [Example 3, (3-((1-(2-methoxy-5-(2,2,3,3,3-pentafluoropropoxy)pyridin-4-yl)piperidin-4-yl)methoxy)-6,7-dihydro-5H-cyclopenta[c]pyridin-5-yl)acetic acid], 109%.
